Consider one compound from patent EP4778516A1, “CALCIFICATION ENHANCER FOR OSTEOBLAST MC3T3-E1 CELL” (Watanabe Oyster Laboratory Co., Ltd., priority 2023, dated 2025).

Assay [1] relates to MC3T3-E1 cells. Briefly: Cell proliferation assay (cell counting). To be noted: Bay 11-7082 1, 10, or 50 nM, 3 days; Fig. 7B. Type of assay: cell-based, mouse. Here is the method: To examine progression of cell proliferation, MC3T3-E1 cells (1×10^5/ml medium per well) were cultured using a 24-well plate in a-MEM supplemented with 10% FBS and 1% P/S at 37°C in a water-saturated atmosphere containing 5% CO2 and 95% air. The cells were cultured for 1, 2, 3, 4, or 5 days in the presence of a vehicle (1% ethanol as final concentration) or DHMBA (10 mM). In another experiment, to evaluate the effects of increased concentrations of DHMBA on MC3T3-E1 cells, the cells (1×10^5/ml per well) were cultured using a 24-well plate in DMEM (containing 10% FBS and 1% P/S). The cells were cultured for 3 days in the presence of either a reagent vehicle (1% ethanol as final concentration) or DHMBA (0.1, 1, 10, 100, or 1000 mM).
To evaluate the effects of DHMBA on cell death of osteoblasts MC3T3-E1, the cells (1×10^5/ml medium per well in a 24-well plate) were cultured in a-MEM containing 10% FBS and 1% P/S. After culturing for 3 days until reaching subconfluence, either a reagent vehicle (1% ethanol as final concentration) or DHMBA (0.1, 1, 10, 100, or 1000 mM) was added, and the cells were further cultured for 48 hours. After culture, to count the number of cells attached to each well, a […] containing 0.05% trypsin and EDTA (0.1 ml per well) was added, and then the culture plates were incubated at 37°C for 2 minutes. Subsequently, a-MEM (0.9 ml) containing 10% FBS and 1% P/S was added, and the cells were detached and mixed by pipetting. The cell suspension (0.1 ml) was mixed with 0.1 ml of 0.5% trypan blue staining solution. By this staining, […]. Viable cells were counted under a microscope (Olympus MTV-3) using a hemocytometer (Sigma-Aldrich, St. Louis, MO) and a cell counter (H-102P, Line Seiki Co., Ltd., Tokyo, Japan), and the average of two counts was calculated. Cell numbers were expressed as the number per well.

The subject of assay [2] is MC3T3-E1 cells. Briefly: Effects of conditioned medium of LPS-stimulated RAW264.7 cells on MC3T3-E1 cells. Type of assay: cell-based, mouse. To be noted: Bay 11-7082 1 or 10 nM, conditioned medium 0.5 ml per well. Here is the method:
A conditioned medium was obtained by culturing RAW264.7 cells.
RAW264.7 cells (1×10^5 cells/ml per well in a 24-well plate) were cultured for 3 days after reaching subconfluence in DMEM containing 10% FBS and 1% P/S in the presence or absence of LPS (concentration in the medium: 100 ng/ml). After the cells were cultured, the medium (conditioned medium) was collected.
To evaluate the effects of the conditioned medium on proliferation of MC3T3-E1 cells, MC3T3-E1 cells were cultured for 3 days in a-MEM containing 10% FBS and 1% P/S. The cells were then cultured for 3 days using either the conditioned medium (1 ml, control) cultured without LPS or the conditioned medium (0.25 or 0.50 ml per well, adjusted to 1 ml with normal medium) cultured with LPS in the presence or absence of DHMBA (1 or 10 mM).
Further, to examine the effects on cell death of MC3T3-E1 cells, the cells (1×10^5 cells/ml per well) were cultured for 3 days in a-MEM containing 10% FBS and 1% P/S. After reaching subconfluence, the medium was replaced. The cells were then further cultured for 48 hours in either the normal medium, the conditioned medium (1 ml) cultured without LPS, or the conditioned medium (0.25 or 0.50 ml per well, adjusted to 1 ml with normal medium) with either a reagent vehicle (1% ethanol as final concentration) or DHMBA (1 or 10 mM). After culture, the cells were detached from each culture well, and cell numbers were counted in the same manner as described above.
Further, the effects of Bay 11-7082, which is an NF-kB signaling inhibitor, on proliferation or cell death of MC3T3-E1 cells were investigated. First, to examine the effects of Bay 11-7082 on proliferation of MC3T3-E1 cells, the cells (1×10^5 cells/1 ml per well in a 24-well plate) were cultured for 3 days until reaching subconfluence in the presence of 10% FBS, 1% P/S, and either a reagent vehicle (1% ethanol as final concentration) or Bay 11-7082 (1, 10, 50, 100, or 1000 nM). Next, MC3T3-E1 cells were cultured for 3 days in the presence of the conditioned medium (0.5 ml per well, adjusted to a total of 1 ml with normal medium) with or without Bay 11-7082 (1 or 10 nM) in the presence or absence of DHMBA (10 mM).
In another experiment, to evaluate the effects of Bay 11-7082 on cell death of MC3T3-E1, the cells (1×10^5 cells/1 ml per well in a 24-well plate) were cultured in a-MEM containing 10% FBS and 1% P/S. After culturing for 3 days until reaching subconfluence, the medium was replaced with a-MEM (1 ml) containing either the normal medium or the conditioned medium prepared by adding the normal medium to 0.5 ml per well of the conditioned medium, adjusted to a total volume of 1 ml. The cells were then further cultured for 48 hours in the presence of Bay 11-7082 (1 or 10 nM), or Bay 11-7082 (10 nM) in combination with DHMBA (10 mM). After culture, the cells were detached from each culture well, and cell numbers were counted as described above.

As for `Cc1ccc(S(=O)(=O)/C=C/C#N)cc1` [Bay 11-7082, reference compound], the “number of MC3T3-E1 cells” value in the assay on MC3T3-E1 cells [1] is on record as “did not cause a significant reduction”. Also, the “effects of the conditioned medium on enhancement of cell death of MC3T3-E1 cells” value in the assay on MC3T3-E1 cells [2] (48 hours, Fig. 7D) was “suppressed”. Moreover, the “effects of the conditioned medium on inhibition of proliferation of MC3T3-E1 cells” value in the assay with MC3T3-E1 cells [2] (3 days, Fig. 7C) is “suppressed”.
